Data on twelve compounds can be found in patent US6380243B1, “Aminopyridine-containing thiourea inhibitors of herpes viruses” (American Home Products Corporation, priority 1998, dated 2002).

One assay relates to HSV-1. As to the kind of experiment: HSV Antiviral (ELISA) Assay. The class given is cell-based, herpes simplex virus type 1. As to conditions: HSV-1, about 24 hours post-infection; for IC50: Human alphaherpesvirus 1, Vero cells, read-out: IC50 (ug/ml) HSV. How it is done: Vero cells (ATCC #CCL-81) are plated on 96-well tissue culture plates at 3.5×10^4 cells per 100 μl tissue culture DMEM (Dulbecco's modified Eagle media) supplemented with 2% fetal bovine serum (FBS) in each well. After overnight incubation @37° C. (in 5% CO2) and 30 minutes prior to infection with HSV-1 (multiplicity of infection equal to 0.006), cells are either untreated, or treated with test compound (multiple concentrations) or reference standard drug control. After approximately 24 hours post-infection incubation @37° C. (in 5% CO2), cells are fixed for ELISA assay. The primary antibody is murine anti-HSV glycoprotein D monoclonal primary antibody and the secondary antibody is goat anti-mouse IgG linked to β-galactosidase. Thus the extent of viral replication is determined by assessing β-galactosidase activity by quantifying the generation of the 4-methyl umbelliferone fluorescent cleavage product after addition of the methyl umbelliferyl-β-D-galactoside (Sigma #M1633) substrate on a microfluorimeter (365 nm for excitation and 450 nm for emission). Antiviral activity (IC50) of the test compound is determined by comparing the flourescence obtained in absence of compound to that obtained in the presence of compound.
(In general: ELISA stands for enzyme-linked immunosorbent assay.)

A further assay concerns HCMV wild-type. As to the kind of experiment: HCMV yield assay. The class given is cell-based, human cytomegalovirus. The following applies: human foreskin fibroblasts, reduction of virus yield by 50%; for IC50: Human betaherpesvirus 5, Fibroblast, read-out: IC50 (ug/ml) HCMV. The protocol: Yield assay. Monolayer cultures of human foreskin fibroblasts are infected with HCMV wild-type, typically at a multiplicity of infection equal to 0.2, in the presence of inhibitor compound (varying concentrations). At three days post-infection, total virus produced in these cultures (i.e. virus yield) is assessed by harvesting and titering the virus in 12-well plates of cultured human foreskin fibroblasts (done in the absence of inhibitor). Plaques are quantified at 2 weeks post-infection. An inhibitor of HCMV is identified by the reduction in titer of virus yield in the presence, compared to the titer in the absence of compound. In this assay, the relative anti-HCMV activity of an inhibitor is typically determined by calculating the IC50 or IC90 value, that is, the amount of compound required to reduce the virus yield by 50% or 90%, respectively. Table I describes IC50 data for compounds tested against HCMV.

In the next assay the test system is VZV strain Ellen. As to the kind of experiment: VZV Antiviral (ELISA) Assay. The class given is cell-based, varicella-zoster virus. The following applies: for IC50 / inhibition at 10 µg/mL: Human alphaherpesvirus 3, 72 h; for IC50: read-out: IC50 (ug/ml) VZV; for inhibition at 10 µg/mL: read-out: % inhibition 10 ug/ml VZV, 10 ug/ml, human foreskin fibroblast cells, three days. The protocol:
For the generation of stock VZV to be used in the assay, VZV strain Ellen (ATCC #VR-1367) is used to infect human foreskin fibroblast (HFF) cells at low multiplicity (less than 0.1) and incubated overnight at 37° C. in 5% CO2. After the overnight incubation, the mixture of uninfected and VZV-infected HFF infected cells are then harvested and added to each well of 96-well plates (3.5×10^4 cells in 100 1μl DMEM supplemented with 2% FBS) which contain test compound or the reference standard drug control (in 100 μl DMEM supplemented with 2% FBS per well). These cells are incubated for three days at 37° C. in 5% CO2, then fixed for ELISA assay. The primary antibody is murine anti-VZV glycoprotein II monoclonal antibody (Applied Biosystems, Inc. #13-145-100) and the secondary antibody is goat anti-mouse IgG linked to β-galactosidase. Thus the extent of viral replication is determined by assessing β-galactosidase activity by quantifying the generation of the 4-methyl umbelliferone fluorescent cleavage product after addition of the methyl umbelliferyl-β-D-galactoside (Sigma #M1633) substrate on a microfluorimeter (365 nm for excitation 450 nm for emission). Antiviral activity (IC50) of the test compound is determined by comparing the flourescence obtained in absence of compound to that obtained the presence of compound.

The mark [1] stands for this setting: human foreskin fibroblast cells, three days.

Values after ≈ are worked out from the molar mass of the structure shown.

Consider “[1,2,3]Thiadiazole-4-carboxylic acid {4-[3-(5-chloro-pyridin-3-yl)-thioureido]-phenyl}-amide [Example 520]”, for which the “IC50 (ug/ml) HSV” value in the assay on HSV-1 (Vero cells) was 12 µg/mL. For the same compound, in the assay with HCMV wild-type, the “IC50 (ug/ml) HCMV” value is 0.32 µg/mL. In addition, the “% inhibition 10 ug/ml VZV” value in the assay on VZV strain Ellen (10 ug/ml, human foreskin fibroblast cells, three days) was 38%. In addition, in the assay with VZV strain Ellen (setting [1]), the “IC50 (ug/ml) VZV” value is more than 10 µg/mL.

As for `O=C(Nc1ccc(NC(=S)Nc2ccncc2)cc1)c1ccccc1F` [Example 444, 2-Fluoro-N-[4-(3-pyridin-4-yl-thioureido)-phenyl]-benzamide], the IC50 was 8 µg/mL (≈ 21.8 µM) with HSV-1, 4 µg/mL (≈ 10.9 µM) in the assay with HCMV wild-type and more than 10 µg/mL in the assay on VZV strain Ellen (setting [1]). Also, the inhibition at 10 µg/mL in the assay on VZV strain Ellen was 0%.

Consider `CC(NC(=S)Nc1ccc(NC(=O)c2ccccc2F)cc1)c1nccc2ccccc12` (centres unmarked) [Example 1098, 2-Fluoro-N-{4-[3-(1-isoquinolin-1-yl-ethyl)-thioureido]-phenyl}-benzamide], for which the values for the IC50 in the assay on HSV-1, in the assay with HCMV wild-type and in the assay with VZV strain Ellen (setting [1]) were 9 µg/mL (≈ 20.2 µM), 3.5 µg/mL (≈ 7.87 µM) and 3.8 µg/mL (≈ 8.55 µM), respectively.

On to `O=C(Nc1ccc(NC(=S)Nc2ccc(Cl)nc2)cc1)c1csnn1` [Example 471, [1,2,3]Thiadiazole-4-carboxylic acid {4-[3-(6-chloro-pyridin-3-yl)-thioureido]-phenyl}-amide], for which the IC50 is more than 10 µg/mL in the assay on HSV-1, 0.03 µg/mL (≈ 0.0767 µM) with HCMV wild-type and more than 10 µg/mL with VZV strain Ellen (setting [1]). The inhibition at 10 µg/mL in the assay on VZV strain Ellen came to 27%.

Regarding `CC(C)(C)n1ccnc1NC(=S)Nc1ccc(NC(=O)c2ccccc2F)cc1` [Example 593, N-{4-[3-(1-tert-Butyl-1H-imidazol-2-yl)-thioureido]-phenyl}-2-fluoro-benzamide], the IC50 in the assay with HSV-1 is 10 µg/mL (≈ 24.3 µM); in the assay with HCMV wild-type, more than 0.5 µg/mL; with VZV strain Ellen (setting [1]) it was more than 10 µg/mL.

Regarding `CC(C)(C)n1ccnc1NC(=S)Nc1ccc(NC(=O)c2ccco2)cc1` [Example 609, Furan-2-carboxylic acid {4-[3-(1-tert-butyl-1H-imidazol-2-yl)-thioureido]-phenyl}-amide], the IC50 in the assay on HSV-1 was 8 µg/mL (≈ 20.9 µM); in the assay with HCMV wild-type, 1.5 µg/mL (≈ 3.91 µM); in the assay on VZV strain Ellen (setting [1]) it was more than 10 µg/mL.

For the compound `CC(NC(=S)Nc1ccc(NC(=O)c2ccccc2F)cc1)c1ccco1` (centres unmarked) [Example 802, 2-Fluoro-N-{4-[3-(1-furan-2-yl-ethyl)-thioureido]-phenyl}-benzamide], the values for the IC50 in the assay on HSV-1, with HCMV wild-type and in the assay with VZV strain Ellen (setting [1]) were more than 10 µg/mL, more than 10 µg/mL and 7.3 µg/mL (≈ 19 µM), respectively.

For `CC(NC(=S)Nc1ccc(NC(=O)c2ccccc2F)cc1)c1ccc2ccccc2n1` (centres unmarked) [Example 1095, 2-Fluoro-N-{4-[3-(1-quinolin-2-yl-ethyl)-thioureido]-phenyl}-benzamide], the values for the IC50 with HSV-1, in the assay with HCMV wild-type and with VZV strain Ellen (setting [1]) were more than 10 µg/mL, 2.4 µg/mL (≈ 5.4 µM) and 7.1 µg/mL (≈ 16 µM), respectively.

Consider `COc1ccccc1C(=O)Nc1ccc(NC(=S)NC(C)c2ccsc2)cc1` (centres unmarked) [Example 1101, 2-Methoxy-N-{4-[3-(1-thiophen-3-yl-ethyl)-thioureido]-phenyl}-benzamide], for which the IC50 with HSV-1 is more than 10 µg/mL; with HCMV wild-type it was more than 10 µg/mL; in the assay with VZV strain Ellen (setting [1]), 1 µg/mL (≈ 2.43 µM).

Take `O=C(Nc1ccc(NC(=S)Nc2cncc(Br)c2)cc1)c1csnn1` [Example 525, [1,2,3]Thiadiazole-4-carboxylic acid {4-[3-(5-bromo-pyridin-3-yl)-thioureido]-phenyl}-amide]: the IC50 is 2.5 µg/mL (≈ 5.74 µM) with HSV-1, 0.018 µg/mL (≈ 0.0413 µM) in the assay with HCMV wild-type and more than 10 µg/mL in the assay with VZV strain Ellen (setting [1]). Also, the inhibition at 10 µg/mL in the assay on VZV strain Ellen was determined as 39%.

Take `O=C(Nc1ccc(NC(=S)Nc2cccnc2)cc1)c1ccco1` [Example 429, Furan-2-carboxylic acid [4-(3-pyridin-3-yl-thioureido)-phenyl]-amide]: the IC50 in the assay on HSV-1 is more than 10 µg/mL; in the assay with HCMV wild-type it was 1 µg/mL (≈ 2.96 µM); in the assay on VZV strain Ellen (setting [1]), more than 10 µg/mL. In the assay on VZV strain Ellen, the inhibition at 10 µg/mL was determined as 0%.

Take `CC(NC(=S)Nc1ccc(NC(=O)c2ccccc2F)cc1)c1cccn1C` (centres unmarked) [Example 804, 2-Fluoro-N-(4-{3-[1-(1-methyl-1H-pyrrol-2-yl)-ethyl]-thioureido}-phenyl)-benzamide]: the IC50 was more than 10 µg/mL in the assay with HSV-1, more than 10 µg/mL with HCMV wild-type and 5.7 µg/mL (≈ 14.4 µM) in the assay with VZV strain Ellen (setting [1]).
